Experimental data: patent US10160747B2, “Compounds and methods for kinase modulation, and indications therefor” (Plexxikon Inc., priority 2016, dated 2018)

Experiments:
[1] = tested on: MOLM-14 D835Y (endogenous FLT3 ITD and transfected FLT3 D835Y); assay: MOLM-14 D835Y cell proliferation assay (CellTiter-Glo); type: cell-based; details: Homo sapiens, MOLM-14, 72 h; 3 d growth, GMean
Excerpt: (§1) The FLT3 inhibitors may be assessed using the MOLM-14, Acute Myeloid Leukemia cell line that endogenously expresses FLT3 ITD or derivatives of the human FLT3 AML cell line which acquired the D835Y (activation loop) of F691L (gatekeeper) mutation after selection in escalating doses of the FLT3 Inhibitor AC220. FLT3 inhibitors may also be assessed using cells that are engineered to express mutant FLT3. For engineered cells, murine Ba/F3 cells were transfected with full-length FLT3 ITD/D835Y mutations. The parental BA/F3 cells are dependent upon Interleukin-3 (IL-3) for survival, and introduction of the FLT3 constructs rendered these cells dependent upon FLT3 kinase activity when cultured in the absences of IL-3. Engineered BA/F3 cell growth assays can be performed in either the […] of IL-3, to assess the compound inhibition of FLT3 or to detect the presence of off-target activity, respectively. Inhibitors of FLT3 kinase activity reduce or eliminate the FLT3 oncogenic signaling, resulting in reduced cell proliferation. This inhibition is measured as a function of compound concentration to assess IC50 values.
(§2) Cell lines used in proliferation assays are as follows in Table 2:
(§3) Cells were seeded at 1×10^4 cells per well of a 96 well cell culture plate in 50 μl of cell culture medium. Compounds were dissolved in DMSO, typically at a concentration of 0.5 mM and were serially diluted 1:3 for a total of eight points and added to the cells to final concentrations of […], 0.0041, 0.0014 and 0.00046 μM in 100 μl cell culture medium (final concentration 0.2% DMSO). […] The cells were incubated at 37° C., 5% CO2 for three days. CellTiter-Glo Buffer (Promega Cell Viability Assay catalog #G7573) and substrate were equilibrated to room temperature, and enzyme/substrate Recombinant Firefly Luciferase/Beetle Luciferin was reconstituted. The cell plates were equilibrated to room temperature for 30 minutes, then lysed by addition of an equivalent volume of the Celltiter-Glo Reagent. The plate was mixed for 10 minutes on a plate shaker to lyse the cells. The plates were read on a Tecan M1000 using Luminescence protocol modified to read 0.1 s per well. The luminescence reading assesses the ATP content, which correlates directly with cell number such that the reading as a function of compound concentration was used to determine the IC50 value.

[2] = tested on: MOLM-14 F691L (endogenous FLT3 ITD and transfected FLT3 F691L); assay: MOLM-14 F691L cell proliferation assay (CellTiter-Glo); type: cell-based; details: Homo sapiens, MOLM-14, 72 h; 3 d growth, GMean
Excerpt: as §1, §2, §3

BA/F3-FLT3-ITD + D835Y = target: T1, BA/F3-FLT3-ITD + D835Y (Homo sapiens, UniProt P36888, D835Y, cells depend on it, form not given); assay: Engineered BA/F3 cell growth assay, FLT3 ITD/D835Y; type: cell-based, murine; details: 3 d growth
T1 sequence (P36888 with tags, fused parts or gaps INS600HVDFREYEYD/D835Y): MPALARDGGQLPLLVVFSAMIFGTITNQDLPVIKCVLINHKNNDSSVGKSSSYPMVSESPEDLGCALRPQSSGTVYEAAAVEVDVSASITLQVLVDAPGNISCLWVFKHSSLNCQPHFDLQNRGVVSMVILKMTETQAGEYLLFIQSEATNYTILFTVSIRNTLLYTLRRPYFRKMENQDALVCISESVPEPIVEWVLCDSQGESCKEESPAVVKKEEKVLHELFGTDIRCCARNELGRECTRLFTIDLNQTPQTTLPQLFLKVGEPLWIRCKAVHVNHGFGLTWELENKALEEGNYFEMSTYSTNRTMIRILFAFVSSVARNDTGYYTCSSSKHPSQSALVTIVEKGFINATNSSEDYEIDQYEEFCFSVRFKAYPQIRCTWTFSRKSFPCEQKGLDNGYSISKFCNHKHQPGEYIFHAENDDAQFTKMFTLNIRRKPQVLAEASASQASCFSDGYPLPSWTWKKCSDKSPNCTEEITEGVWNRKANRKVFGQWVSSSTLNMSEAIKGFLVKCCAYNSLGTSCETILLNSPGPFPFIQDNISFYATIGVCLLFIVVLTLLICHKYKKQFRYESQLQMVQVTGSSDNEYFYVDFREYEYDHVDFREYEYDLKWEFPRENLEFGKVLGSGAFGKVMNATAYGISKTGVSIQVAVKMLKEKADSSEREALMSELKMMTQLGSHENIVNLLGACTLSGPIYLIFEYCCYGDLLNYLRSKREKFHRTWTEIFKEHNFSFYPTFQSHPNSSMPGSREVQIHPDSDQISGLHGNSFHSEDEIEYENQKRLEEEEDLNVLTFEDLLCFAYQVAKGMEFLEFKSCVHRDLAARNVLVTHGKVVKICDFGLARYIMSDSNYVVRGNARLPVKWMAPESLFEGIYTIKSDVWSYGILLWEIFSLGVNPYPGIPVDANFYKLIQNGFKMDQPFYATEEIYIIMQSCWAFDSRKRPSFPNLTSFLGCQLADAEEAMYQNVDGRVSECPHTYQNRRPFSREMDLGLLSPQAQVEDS
Excerpt: as §1, §2, §3
The BaF3 assays as developed used to generate the data in Tables 7 and 8 are identical and differ only in minor details in regards to vector design, not biological function. Both introduce the FLT3 gene with MV4-11 based ITD duplications and resistance mutations from an exogenous promoter (MSCV and CMV respectively) in the exact same cell line.
As a result of the expressed FLT3 protein, the IL3 factor dependent BaF3 cell clones become IL3-factor independent.
The compounds in Tables 7 and 8 were tested in an identical fashion by incubating such clones in with increasing concentrations. Inhibition of the FLT3 activity by an inhibitor results in factor dependency, which in the absence of IL3 results in cell death in the three day growth assays.

CC(C)(C#N)c1ccc(NC(=O)Cc2ccc(-c3cnc4[nH]cc(F)c4c3)cc2F)cn1 [Compound P-0042, N-(6-(2-cyanopropan-2-yl)pyridin-3-yl)-2-(2-fluoro-4-(3-fluoro-1H-pyrrolo[2,3-b]pyridin-5-yl)phenyl)acetamide]
0.0001 to 10 µM: IC50 [1] | IC50 [2] | GI50 (BA/F3-FLT3-ITD + D835Y)

Cn1cc(Nc2ncc(-c3ccc(CC(=O)NCc4cccc(C(F)(F)F)c4)cc3)cn2)cn1 [Compound P-0128, 2-[4-[2-[(1-methylpyrazol-4-yl)amino]pyrimidin-5-yl]phenyl]-N-[[3-(trifluoromethyl)phenyl]methyl]acetamide]
0.0001 to 10 µM: IC50 [1] | IC50 [2] | GI50 (BA/F3-FLT3-ITD + D835Y)

Cn1cc(Nc2ncc(-c3ccc(CC(=O)NCc4ccc(C(F)(F)F)cc4)cc3)cn2)cn1 [Compound P-0129, 2-[4-[2-[(1-methylpyrazol-4-yl)amino]pyrimidin-5-yl]phenyl]-N-[[4-(trifluoromethyl)phenyl]methyl]acetamide]
0.0001 to 10 µM: IC50 [1] | IC50 [2] | GI50 (BA/F3-FLT3-ITD + D835Y)

Cn1cc(Nc2ncc(-c3ccc(CC(=O)Nc4cnc(Cl)c(Br)c4)cc3)cn2)cn1 [Compound P-0117, N-(5-bromo-6-chloro-3-pyridyl)-2-[4-[2-[(1-methylpyrazol-4-yl)amino]pyrimidin-5-yl]phenyl]acetamide]
0.0001 to 10 µM: IC50 [1] | IC50 [2] | GI50 (BA/F3-FLT3-ITD + D835Y)

Cn1cc(Nc2ncc(-c3ccc(CC(=O)NCc4ccc(F)cc4Cl)cc3)cn2)cn1 [Compound P-0125, N-[(2-chloro-4-fluoro-phenyl)methyl]-2-[4-[2-[(1-methylpyrazol-4-yl)amino]pyrimidin-5-yl]phenyl]acetamide]
0.0001 to 10 µM: IC50 [1] | IC50 [2] | GI50 (BA/F3-FLT3-ITD + D835Y)

COc1ncc(NC(=O)Cc2ccc(-c3cnc(Nc4cnn(C(F)F)c4C)nc3)cc2)cc1C(F)(F)F [Compound P-0039, 2-[4-[2-[[1-(difluoromethyl)-5-methyl-pyrazol-4-yl]amino]pyrimidin-5-yl]phenyl]-N-[6-methoxy-5-(trifluoromethyl)-3-pyridyl]acetamide]
0.0001 to 10 µM: IC50 [1] | IC50 [2] | GI50 (BA/F3-FLT3-ITD + D835Y)

COc1ncc(NC(=O)Cc2ccc(-c3cnc4[nH]c(-c5ccnc(C#N)c5)cc4c3)nc2)cc1C(F)(F)F [Compound P-0006, 2-[6-[2-(2-cyano-4-pyridyl)-1H-pyrrolo[2,3-b]pyridin-5-yl]-3-pyridyl]-N-[6-methoxy-5-(trifluoromethyl)-3-pyridyl]acetamide]
0.0001 to 10 µM: IC50 [1] | IC50 [2] | GI50 (BA/F3-FLT3-ITD + D835Y)

COc1ncc(NC(=O)Cc2ccc(-c3cnc(Nc4cn(C(F)F)nc4C)nc3)cc2)cc1C(F)(F)F [Compound P-0054, 2-[4-[2-[[1-(difluoromethyl)-3-methyl-pyrazol-4-yl]amino]pyrimidin-5-yl]phenyl]-N-[6-methoxy-5-(trifluoromethyl)-3-pyridyl]acetamide]
0.0001 to 10 µM: IC50 [1] | IC50 [2] | GI50 (BA/F3-FLT3-ITD + D835Y)

Cn1cc(Nc2ncc(-c3ccc(CC(=O)NCc4c(F)cccc4Cl)cc3)cn2)cn1 [Compound P-0127, N-[(2-chloro-6-fluoro-phenyl)methyl]-2-[4-[2-[(1-methylpyrazol-4-yl)amino]pyrimidin-5-yl]phenyl]acetamide]
0.0001 to 10 µM: IC50 [1] | IC50 [2] | GI50 (BA/F3-FLT3-ITD + D835Y)

Cc1noc2ncc(NC(=O)Cc3ccc(-c4cnc(Nc5cnn(C)c5)nc4)cc3)cc12 [Compound P-0130, N-(3-methylisoxazolo[5,4-b]pyridin-5-yl)-2-[4-[2-[(1-methylpyrazol-4-yl)amino]pyrimidin-5-yl]phenyl]acetamide]
0.0001 to 10 µM: IC50 [1] | IC50 [2] | GI50 (BA/F3-FLT3-ITD + D835Y)

O=C(Cc1ccc(-c2cnc(Nc3cnn(C(F)F)c3)nc2)cc1)Nc1cncc(C2CC2)c1 [Compound P-0224, N-(5-cyclopropyl-3-pyridyl)-2-[4-[2-[[1-(difluoromethyl)pyrazol-4-yl]amino]pyrimidin-5-yl]phenyl]acetamide]
0.0001 to 10 µM: IC50 [1] | IC50 [2] | GI50 (BA/F3-FLT3-ITD + D835Y)

COc1ncc(NC(=O)Cc2ccc(-c3cnc(Nc4cnn(C)c4)nc3)cc2)cc1Br [Compound P-0118, N-(5-bromo-6-methoxy-3-pyridyl)-2-[4-[2-[(1-methylpyrazol-4-yl)amino]pyrimidin-5-yl]phenyl]acetamide]
0.0001 to 10 µM: IC50 [1] | IC50 [2] | GI50 (BA/F3-FLT3-ITD + D835Y)

CCc1cncc(NC(=O)Cc2ccc(-c3cnc(Nc4cnn(C(F)F)c4)nc3)cc2)c1 [Compound P-0223, 2-[4-[2-[[1-(difluoromethyl)pyrazol-4-yl]amino]pyrimidin-5-yl]phenyl]-N-(5-ethyl-3-pyridyl)acetamide]
0.0001 to 10 µM: IC50 [1] | IC50 [2] | GI50 (BA/F3-FLT3-ITD + D835Y)
